Measured values published in patent US11959079B2, “Methods for treating apolipoprotein E4-associated disorders” (priority 2009, dated 2024).
Entries after “also recorded” stand apart in the source; their conditions may differ.

Key:
Assay type in all cases: in vivo
[1] = tested on: apoE4(Δ272-299)mE−/−Tau−/− mice; test: Morris water maze, apoE4(Δ272-299)mE−/−Tau−/− mice
Method: (§1) Human apoE3-KI and apoE4-KI mice (Sullivan et al., 2004) were from Taconic. Tau−/− mice (Dawson et al., 2001) were backcrossed onto the mE−/− background, and mE−/−Tau−/− mice were crossed with apoE4(Δ272-299)mE−/− Tau+/+ mice. Studies were conducted on female mice at 1, 3, 6, 12, 16, or 21 months of age. All mice were on a C57BL/6 genetic background. Some apoE4-KI and apoE4(Δ272-299)mE−/−Tau+/+ mice received daily intraperitoneal injections of pentobarbital (20 mg/kg) or saline in their home cages for 21 days before the first day of Morris Water Maze (MWM) training and 1 h after daily training. Some apoE4(Δ272-299)mE−/−Tau−/− mice were given daily injections of picrotoxin (1 mg/kg) or saline intraperitoneally in their home cages for 3 days before MWM training and 30 min before daily training. Brain tissues were collected after a 1-min transcardial perfusion with 0.9% NaCl. One hemibrain from each mouse was fixed in 4% paraformaldehyde, sectioned (30 μm) with a microtome, and immunostained as described below. All experiments were performed in accordance with NIH and institutional guidelines.
The water maze pool (diameter, 122 cm) contained opaque water (22-23° C.) with a platform 10 cm in diameter. The platform was submerged 1.5 cm during hidden platform sessions (Harris et al., 2003; Raber et al., 1998; Roberson et al., 2007) and marked with black-and-white-striped mast (15 cm high) during cued training sessions. Mice were trained to locate the hidden platform (hidden days 1-5) and the cued platform (visible days 1-3) in two daily sessions (3.5 h apart), each consisting of two 60-s trials (hidden and cued training) with a 15-min intertrial interval. The platform location remained constant in the hidden platform sessions but was changed for each cued platform session. Entry points were changed semirandomly between trials. Twenty-four, 72, and 96 hours after the last hidden platform training, a 60-s probe trial (platform removed) was performed. […] Performance was monitored with an EthoVision video-tracking system (Noldus Information Technology).

[2] = tested on: apoE4(Δ272-299)mE−/−Tau−/− mice; test: Quantification of GAD67-positive hilar GABAergic interneurons, apoE4(Δ272-299)mE−/−Tau−/− mice; details: 12-month-old female mice, 1 mg/kg i.p., 3 days before and every day during MWM
Method: as §1, with “Brain tissues were collected after a 1-min transcardial perfusion with 0.9% NaCl. One hemibrain from each mouse was fixed in 4% paraformaldehyde, sectioned (30 μm) with a microtome, and immunostained as described below. All experiments were performed in accordance with NIH and institutional guidelines.” left out
(§2) Sliding microtome sections (30 μm) were immunostained with the following primary antibodies: polyclonal goat anti-human apoE (1:8000 for fluorescence; Calbiochem), rabbit anti-neuropeptide Y (1:8000 for […] (DAB); ImmunoStar), rat anti-somatostatin (1:100 for DAB; Chemicon), mouse anti-GAD67 (1:1000 for DAB; Chemicon), mouse anti-MAP2 (1:500 for fluorescence; Sigma), mouse anti-synaptophysin (1:500 for fluorescence; DakoCytomation), and phosphorylation-dependent monoclonal antibody AT8 (p-Ser202; 1:100 for DAB; Endogen). […]

[3] = tested on: wildtype mice; test: Morris water maze, wildtype mice; details: 12-month-old female wildtype mice, 1 mg/kg i.p., 3 days before and every day during MWM
Method: (§3) The water maze pool (diameter, 122 cm) contained opaque water (22-23° C.) with a platform 10 cm in diameter. The platform was submerged 1.5 cm during hidden platform sessions (Harris et al., 2003; Raber et al., 1998; Roberson et al., 2007) and marked with black-and-white-striped mast (15 cm high) during cued training sessions. Mice were trained to locate the hidden platform (hidden days 1-5) and the cued platform (visible days 1-3) in two daily sessions (3.5 h apart), each consisting of two 60-s trials (hidden and cued training) with a 15-min intertrial interval. The platform location remained constant in the hidden platform sessions but was changed for each cued platform session. Entry points were changed semirandomly between trials. Twenty-four, 72, and 96 hours after the last hidden platform training, a 60-s probe trial (platform removed) was performed. Entry points for the probe trial were in the west quadrant, and the target quadrant was in the southeast quadrant. Performance was monitored with an EthoVision video-tracking system (Noldus Information Technology).

[4] = tested on: mE−/−Tau+/+ mice; test: Morris water maze, mE−/−Tau+/+ mice; details: 12-month-old female mE−/−Tau+/+ mice, 1 mg/kg i.p., 3 days before and every day during MWM
Method: as §3

[5] = tested on: female apoE4-KI mice; test: Morris water maze, spatial learning and memory, apoE4-KI mice
Method: as §1, §3

[6] = tested on: female apoE4-KI mice; test: Quantification of GAD67-positive hilar GABAergic interneurons, apoE4-KI mice; details: 16-month-old female apoE4-KI mice; 20 mg/kg i.p.
Method: as §1, with “Brain tissues were collected after a 1-min transcardial perfusion with 0.9% NaCl. One hemibrain from each mouse was fixed in 4% paraformaldehyde, sectioned (30 μm) with a microtome, and immunostained as described below. All experiments were performed in accordance with NIH and institutional guidelines.” left out
as §2

[7] = tested on: apoE4(Δ272-299)mE−/−Tau+/+ mice; test: Morris water maze, apoE4(Δ272-299)mE−/−Tau+/+ mice; details: 12-month-old female mice, 20 mg/kg i.p., 21 days before and every day during MWM, vs saline
Method: as §1
The water maze pool (diameter, 122 cm) contained opaque water (22-23° C.) with a platform 10 cm in diameter. […] Performance was monitored with an EthoVision video-tracking system (Noldus Information Technology).

Molecule: picrotoxin
- learning curve (hidden platform) ([1]; 1 mg/kg i.p., 3 days before and daily during MWM, vs saline-treated controls): resembled that of saline-treated apoE4(Δ272-299)mE−/−Tau+/+ mice
- target crossing test in probe trial ([1]; probe trial 24 h after last hidden session, 1 mg/kg i.p.): performed significantly worse
- rescue (prevention) of learning and memory deficits by tau removal ([1]; subthreshold dose 1 mg/kg i.p., 3 days before and daily during MWM): abolished
- number of hilar GABAergic interneurons (GAD67-positive) [2]: unaltered; also recorded: does not alter
- learning and memory performance [3]: does not alter the learning and memory performance
- learning and memory performance ([3]; listed as Picrotoxin): did not alter
- learning and memory performance [4]: does not alter the learning and memory performance
- learning and memory performance ([4]; listed as Picrotoxin): did not alter

Molecule: CCCC(C)C1(CC)C(=O)NC(=O)NC1=O (centres unmarked) [pentobarbital]
- memory deficits in probe trial (target quadrant and target cross tests) ([5]; 16-month-old apoE4-KI mice, probe trial 96 h after last hidden session, 20 mg/kg i.p.): rescued memory deficits
- learning and memory deficits ([5]; 16-month-old female apoE4-KI mice, 20 mg/kg i.p. daily, 21 days before and during MWM): rescued the learning and memory deficits
- learning curve (escape latency, hidden platform days) ([5]; 16-month-old female apoE4-KI mice, 20 mg/kg i.p., 21 days before and daily during MWM, vs saline): differed from that of saline-treated apoE4-KI mice (p<0.05, repeated-measures ANOVA) but resembled that of untreated apoE3-KI mice
- learning deficit / learning curve (hidden platform) ([5]; 21-month-old female apoE4-KI mice, 20 mg/kg, 21 days before and daily during MWM, vs saline, 20 mg/kg): rescued; also recorded: differed from that of saline-treated apoE4-KI mice (p<0.05, repeated-measures ANOVA) but resembled that of saline-treated apoE3-KI mice
- number of hilar GABAergic interneurons [6]: did not alter
- learning deficit (hidden platform sessions) [7]: rescued the learning and memory deficits; also recorded: rescued the learning deficit; also recorded: learned better than saline-treated apoE4(Δ272-299)mE−/−Tau+/+ mice (p<0.01)
